Tests used:
Hepatotoxicity [1] = test system: Hepatotoxicity;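 on HepSE cholecystitis: Cholecystitis-related hepatic side effect score drawn from the DILIps (drug-induced liver injury prediction) training data set; call rule not given here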; on HepSE hepatic failure: call rule not given here;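 on HepSE hepatic necrosis: score of hepatic side effects for hepatic necrosis, drawn from the training data of DILIps, a prediction system for drug-induced liver injury; call rule not given here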;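 on HepSE hepatomegaly: hepatic side effect score for hepatomegaly, taken from the training set of the DILIps drug-induced liver injury prediction system; call rule not given here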;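 on HepSE liver fatty: hepatic side effect score for fatty liver, taken from the DILIps training set for predicting drug-induced liver injury; call rule not given here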;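 on HepSE liver function tests abnormal: hepatic side effect score taken from the DILIps (drug-induced liver injury prediction system) training data, here covering abnormal liver function test findings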
Hepatotoxicity [2] = test system: Hepatotoxicity; remark: listed apart in the source;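 on HepSE cholecystitis: Cholecystitis-related hepatic side effect score drawn from the DILIps (drug-induced liver injury prediction) training data set; call rule not given here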; on HepSE hepatic failure: call rule not given here;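 on HepSE hepatic necrosis: score of hepatic side effects for hepatic necrosis, drawn from the training data of DILIps, a prediction system for drug-induced liver injury; call rule not given here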;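 on HepSE hepatomegaly: hepatic side effect score for hepatomegaly, taken from the training set of the DILIps drug-induced liver injury prediction system; call rule not given here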;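 on HepSE liver fatty: hepatic side effect score for fatty liver, taken from the DILIps training set for predicting drug-induced liver injury; call rule not given here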;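 on HepSE liver function tests abnormal: hepatic side effect score taken from the DILIps (drug-induced liver injury prediction system) training data, here covering abnormal liver function test findings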
Hepatotoxicity [3] = test system: Hepatotoxicity; remark: listed apart in the source;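 on HepSE cholecystitis: Cholecystitis-related hepatic side effect score drawn from the DILIps (drug-induced liver injury prediction) training data set; call rule not given here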; on HepSE hepatic failure: call rule not given here;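 on HepSE hepatic necrosis: score of hepatic side effects for hepatic necrosis, drawn from the training data of DILIps, a prediction system for drug-induced liver injury; call rule not given here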;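 on HepSE hepatomegaly: hepatic side effect score for hepatomegaly, taken from the training set of the DILIps drug-induced liver injury prediction system; call rule not given here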;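 on HepSE liver fatty: hepatic side effect score for fatty liver, taken from the DILIps training set for predicting drug-induced liver injury; call rule not given here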;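 on HepSE liver function tests abnormal: hepatic side effect score taken from the DILIps (drug-induced liver injury prediction system) training data, here covering abnormal liver function test findings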
Hepatotoxicity [4] = test system: Hepatotoxicity; remark: listed apart in the source;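 on HepSE cholecystitis: Cholecystitis-related hepatic side effect score drawn from the DILIps (drug-induced liver injury prediction) training data set; call rule not given here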; on HepSE hepatic failure: call rule not given here;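 on HepSE hepatic necrosis: score of hepatic side effects for hepatic necrosis, drawn from the training data of DILIps, a prediction system for drug-induced liver injury; call rule not given here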;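 on HepSE hepatomegaly: hepatic side effect score for hepatomegaly, taken from the training set of the DILIps drug-induced liver injury prediction system; call rule not given here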;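 on HepSE liver fatty: hepatic side effect score for fatty liver, taken from the DILIps training set for predicting drug-induced liver injury; call rule not given here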;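 on HepSE liver function tests abnormal: hepatic side effect score taken from the DILIps (drug-induced liver injury prediction system) training data, here covering abnormal liver function test findings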
Hepatotoxicity [5] = test system: Hepatotoxicity; remark: listed apart in the source; on HepSE hepatic failure: call rule not given here
Hepatotoxicity [6] = test system: Hepatotoxicity; remark: listed apart in the source; on HepSE hepatic failure: call rule not given here
Hepatotoxicity [7] = test system: Hepatotoxicity; remark: listed apart in the source
Hepatotoxicity [8] = test system: Hepatotoxicity; remark: listed apart in the source
Hepatotoxicity [9] = test system: Hepatotoxicity; remark: listed apart in the source
Hepatotoxicity [10] = test system: Hepatotoxicity; remark: listed apart in the source
Hepatotoxicity [11] = test system: Hepatotoxicity; remark: listed apart in the source
Hepatotoxicity [12] = test system: Hepatotoxicity; remark: listed apart in the source
Hepatotoxicity [13] = test system: Hepatotoxicity; remark: listed apart in the source
Hepatotoxicity [14] = test system: Hepatotoxicity; remark: listed apart in the source

| Structure (SMILES) | HepSE_hepatic failure (Hepatotoxicity [1]) | HepSE_hepatic necrosis (Hepatotoxicity [2]) | HepSE_hepatomegaly (Hepatotoxicity [3]) | HepSE_liver fatty (Hepatotoxicity [4]) | HepSE_cholelithiasis (Hepatotoxicity [5]) | HepSE_liver function tests abnormal (Hepatotoxicity [6]) | HepSE_bilirubinemia (Hepatotoxicity [7]) | HepSE_cholecystitis (Hepatotoxicity [8]) | HepSE_cirrhosis (Hepatotoxicity [9]) | HepSE_Combined Scores (Hepatotoxicity [10]) | HepSE_jaundice (Hepatotoxicity [11]) | HepSE_liver disease (Hepatotoxicity [12]) | HepSE_elevated liver function tests (Hepatotoxicity [13]) | HepSE_hepatitis (Hepatotoxicity [14]) | further results |
| --- | --- | --- | --- | --- | --- | --- | --- | --- | --- | --- | --- | --- | --- | --- | --- |
| COc1cc2ncnc(Nc3ccc(F)c(Cl)c3)c2cc1OCCCN1CCOCC1 [GEFITINIB] | 0 | 0 | 0 | 0 | 0 | 0 | 0 | 0 | 0 | 0 | 0 | 0 | 0 | 0 | – |
| Nc1ccn([C@@H]2O[C@H](CO)[C@@H](O)C2(F)F)c(=O)n1 [GEMCITABINE] | 1 | 0 | 0 | 0 | 0 | 0 | 0 | 0 | 0 | 1 | 0 | 0 | 0 | 0 | – |
| Cc1ccc(C)c(OCCCC(C)(C)C(=O)O)c1 [GEMFIBROZIL] | 0 | 0 | 0 | 0 | 1 | 1 | 0 | 1 | 0 | 4 | 1 | 0 | 0 | 0 | – |
| CO/N=C1\CN(c2nc3c(cc2F)c(=O)c(C(=O)O)cn3C2CC2)CC1CN (stereo not drawn) [GEMIFLOXACIN] | 0 | 0 | 0 | 0 | 0 | 0 | 1 | 0 | 0 | 3 | 1 | 0 | 0 | 1 | – |
| Cc1ccc(S(=O)(=O)NC(=O)NN2CC3CCCC3C2)cc1 (stereo not drawn) [GLICLAZIDE] | 1 | 0 | 1 | 0 | 0 | 0 | 0 | 0 | 0 | 4 | 1 | 0 | 0 | 1 | – |
| CCC1=C(C)CN(C(=O)NCCc2ccc(S(=O)(=O)NC(=O)N[C@H]3CC[C@H](C)CC3)cc2)C1=O [GLIMEPIRIDE] | 1 | 0 | 0 | 0 | 0 | 0 | 0 | 0 | 0 | 3 | 1 | 0 | 0 | 1 | – |
| NC(=O)CC[C@H](N)C(=O)O [GLUTAMINE] | 0 | 0 | 0 | 0 | 0 | 0 | 0 | 0 | 0 | 0 | 0 | 0 | 0 | 0 | – |
| COc1ccc(Cl)cc1C(=O)NCCc1ccc(S(=O)(=O)NC(=O)NC2CCCCC2)cc1 [GLYBURIDE] | 1 | 0 | 0 | 0 | 0 | 0 | 0 | 0 | 0 | 3 | 1 | 0 | 0 | 1 | – |
| NCC(=O)O [GLYCINE] | – | – | – | – | – | – | – | – | – | – | – | – | – | – | HepSE_hepatic failure (Hepatotoxicity [1]; Liver): 0; HepSE_hepatic necrosis (Hepatotoxicity [2]; Liver): 0; HepSE_hepatomegaly (Hepatotoxicity [3]; Liver): 0; HepSE_liver fatty (Hepatotoxicity [4]; Liver): 0; HepSE_cholelithiasis (Hepatotoxicity [5]; Liver): 0; HepSE_liver function tests abnormal (Hepatotoxicity [6]; Liver): 0; HepSE_bilirubinemia (Hepatotoxicity [7]; Liver): 0; HepSE_cholecystitis (Hepatotoxicity [8]; Liver): 0; HepSE_cirrhosis (Hepatotoxicity [9]; Liver): 0; HepSE_Combined Scores (Hepatotoxicity [10]; Liver): 0; HepSE_jaundice (Hepatotoxicity [11]; Liver): 0; HepSE_liver disease (Hepatotoxicity [12]; Liver): 0; HepSE_elevated liver function tests (Hepatotoxicity [13]; Liver): 0; HepSE_hepatitis (Hepatotoxicity [14]; Liver): 0 |
| CC(C)C[C@H](NC(=O)[C@@H](COC(C)(C)C)NC(=O)[C@H](Cc1ccc(O)cc1)NC(=O)[C@H](CO)NC(=O)[C@H](Cc1c[nH]c2ccccc12)NC(=O)[C@H](Cc1cnc[nH]1)NC(=O)[C@@H]1CCC(=O)N1)C(=O)N[C@@H](CCCNC(=N)N)C(=O)N1CCC[C@H]1C(=O)NNC(N)=O [GOSERELIN] | 0 | 0 | 0 | 0 | 0 | 0 | 0 | 0 | 0 | 0 | 0 | 0 | 0 | 0 | – |
| CN1C2CCCC1CC(NC(=O)c1nn(C)c3ccccc13)C2 (stereo not drawn) [GRANISETRON] | 0 | 0 | 0 | 0 | 0 | 1 | 1 | 0 | 0 | 3 | 1 | 0 | 0 | 0 | – |
| COC1=CC(=O)C[C@@H](C)[C@]12Oc1c(Cl)c(OC)cc(OC)c1C2=O [GRISEOFULVIN] | 0 | 0 | 0 | 0 | 0 | 0 | 0 | 0 | 0 | 0 | 0 | 0 | 0 | 0 | – |
| N=C(N)NCCN1CCCCCCC1 [GUANETHIDINE] | 0 | 0 | 0 | 0 | 0 | 0 | 0 | 0 | 0 | 0 | 0 | 0 | 0 | 0 | – |
| N=C(N)NC(=O)Cc1c(Cl)cccc1Cl [GUANFACINE] | 0 | 0 | 0 | 0 | 0 | 1 | 0 | 0 | 0 | 1 | 0 | 0 | 0 | 0 | – |
| CC1(C)O[C@@H]2C[C@H]3[C@@H]4CCC5=CC(=O)CC[C@]5(C)[C@@]4(F)[C@@H](O)C[C@]3(C)[C@]2(C(=O)CCl)O1 [HALCINONIDE] | 0 | 0 | 0 | 0 | 0 | 0 | 0 | 0 | 0 | 0 | 0 | 0 | 0 | 0 | – |
| CCC(=O)O[C@]1(C(=O)CCl)[C@@H](C)C[C@H]2[C@@H]3C[C@H](F)C4=CC(=O)C=C[C@]4(C)[C@@]3(F)[C@@H](O)C[C@@]21C [HALOBETASOL PROPIONATE] | 0 | 0 | 0 | 0 | 0 | 0 | 0 | 0 | 0 | 0 | 0 | 0 | 0 | 0 | – |
| CCCCN(CCCC)CCC(O)c1cc2c(Cl)cc(Cl)cc2c2cc(C(F)(F)F)ccc12 (stereo not drawn) [HALOFANTRINE] | 0 | 0 | 0 | 0 | 0 | 0 | 0 | 0 | 0 | 0 | 0 | 0 | 0 | 0 | – |
